Experimental data as given in patent US20060037085A1, “Animal model for fetal alcohol syndrome and methods of treatment” (priority 2004, published 2006).
Where two headings read alike, the source gives them in different places.

Tested on: Xenopus laevis embryos
Details: for % body length of control / % width between eyes of control / N (normal) tadpoles / def (deformed) tadpoles: Xenopus laevis
Description: Embryo collection and experimental conditions for Xenopus model. […] In each experiment, embryos at the 2-4 cell stage were collected from the dejellied embryos. […] Each group was then incubated in a plastic petri dish containing 10 ml of 30% MMR, with or without ethanol for 12 hours. Embryos were allowed to develop for approximately 48 hours at room temperature (22° C.), until the control group reached tadpole stage (stage 45). The conditions used for producing eye defects (Peng et al, 2004), delayed gut development (Peng), microencephaly (Peng et al), and growth retardation (Peng) are shown in detail in the attached references.
Morphological measurements of microcephaly and growth retardation.
In a specific embodiment, embryos are exposed to at least about 0.4%, 0.5%, 0.6%, 0.7%, 0.8%, 0.9% or 1% alcohol.
Embryos were exposed to 0.6% ethanol at stage 9, 11, 13, 16, 18, 20, 23, 25 and 40 and were grown until the control “no ethanol” group reached tadpole stage. The morphology of the tadpoles was then examined (Table 2).
To determine the minimum duration required to produce fetal deformations, embryos at stage 13 were exposed to 0.6% of alcohol for 1, 2, 4, 6, 12, 24, 36 or 48 hours.

## CCO [Ethanol, ethanol]
0.3% ethanol from stage 11 until control reached stage 45, 15 embryos per group
  dead: 2
0.4% ethanol from stage 11 until control reached stage 45, 15 embryos per group
  dead: 1
0.5% ethanol from stage 11 until control reached stage 45, 15 embryos per group
  dead: 2
0.6% alcohol, 12-hour exposure, stage 13-22
  mortality, head and body sizes vs control: increased mortality and marked reduction in head and body sizes
0.6% ethanol from stage 11 until control reached stage 45, 15 embryos per group
  dead: 1
0.6% ethanol, initial exposure at Stage 11, until control reached tadpole stage
  dead: 3
0.6% ethanol, initial exposure at Stage 13, until control reached tadpole stage
  dead: 2
0.6% ethanol, initial exposure at Stage 16, until control reached tadpole stage
  dead: 1
0.6% ethanol, initial exposure at Stage 18, until control reached tadpole stage
  dead: 1
0.6% ethanol, initial exposure at Stage 20, until control reached tadpole stage
  dead: 2
0.6% ethanol, initial exposure at Stage 23, until control reached tadpole stage
  dead: 1
1.0% ethanol from stage 11 until control reached stage 45, 15 embryos per group
  dead: 3
1.5% ethanol from stage 11 until control reached stage 45, 15 embryos per group
  dead: 4
2.0% ethanol from stage 11 until control reached stage 45, 15 embryos per group
  dead: 6
In vivo, 0.3 %
  % body length of control: 95 ± 54%
  % width between eyes of control: 84 ± 15%
  N (normal) tadpoles: 11
  def (deformed) tadpoles: 3
In vivo, 0.4 %
  % body length of control: 90 ± 41%
  % width between eyes of control: 81 ± 11 %
  N (normal) tadpoles: 10
  def (deformed) tadpoles: 4
In vivo, 0.5 %
  % body length of control: 85 ± 57 %
  % width between eyes of control: 75 ± 09 %
  N (normal) tadpoles: 7
  def (deformed) tadpoles: 6
In vivo, 0.6 %
  % body length of control: 74 ± 34 %
  % width between eyes of control: 70 ± 18 %
  N (normal) tadpoles: 5
  def (deformed) tadpoles: 9
In vivo, 1 %
  % body length of control: 70 ± 39 %
  % width between eyes of control: 69 ± 21 %
  N (normal) tadpoles: 2
  def (deformed) tadpoles: 10
In vivo, 1.5 %
  % body length of control: 67 ± 51 %
  % width between eyes of control: 67 ± 17 %
  N (normal) tadpoles: 1
  def (deformed) tadpoles: 10
In vivo, 2 %
  % body length of control: 65 ± 58 %
  % width between eyes of control: 67 ± 23 %
  N (normal) tadpoles: 0
  def (deformed) tadpoles: 9
In vivo
  effect on viability and morphology of the tadpoles: no significant effect in either the viability or the morphology of the tadpoles
  teratogenic effect: resistant to the teratogenic effect of alcohol
Stage 40 tadpoles exposed to 0.6% alcohol
  mortality rate: 80%
